Test results from patent publication US20220089568A1 (Janssen Biotech, Inc., priority 2019, published 2022).

Columns and labels:
[1] = test system: MOLM-13 cells; assay: MOLM-13 Cellular Assay; type: cell-based; conditions: Homo sapiens, 72 hours exposure, cell viability by CellTiter-Glo
Protocol: The day prior to assay set-up, cells were pelleted, resuspended in fresh media, counted, and cells were plated at 0.4×10^6 cell/mL in a T150 flask. […] Cells were exposed to different concentrations of test compounds at 37° C., 5% CO2 for 72 hours immediately after seeding.

[2] = biological target: T1, human DHODH (Homo sapiens, UniProt Q02127); assay: DHODH Enzymatic Assay; type: biochemical; conditions: purified human DHODH; DCIP absorbance, end-point mode
T1 construct: purchased Proteros PR-0044
Protocol: To detect DHODH enzyme activities, dichloroindophenol (DCIP) is added as the final electron acceptor in the assay. DCIP can accept electrons from the reduced coenzyme Q generated in the assay, or from dihydroorotate (DHO) via FMN by binding presumably to the ubiquinone pocket. […] The assay buffer contained […], pH 7.5, 150 mM NaCl, 0.5 mM EDTA, and 0.1% Triton X-100 in MilliQ water. Substrate consisting of 20 mM DHO, 5 mM CoQ6, and 1 mM DCIP in assay buffer, initiates the reaction. […] Absorbance measurements were obtained using the BMG Phera Star plate-reading spectrophotomer. Purified human DHODH was purchased from Proteros (cat. No. PR-0044). Chemicals were purchased from Sigma-Aldrich, Teknova, and Avanti Polar Lipids. Liquid handling was performed using Labcyte Echo and Formulatrix Tempest.

T1 sequence (Q02127 whole entry): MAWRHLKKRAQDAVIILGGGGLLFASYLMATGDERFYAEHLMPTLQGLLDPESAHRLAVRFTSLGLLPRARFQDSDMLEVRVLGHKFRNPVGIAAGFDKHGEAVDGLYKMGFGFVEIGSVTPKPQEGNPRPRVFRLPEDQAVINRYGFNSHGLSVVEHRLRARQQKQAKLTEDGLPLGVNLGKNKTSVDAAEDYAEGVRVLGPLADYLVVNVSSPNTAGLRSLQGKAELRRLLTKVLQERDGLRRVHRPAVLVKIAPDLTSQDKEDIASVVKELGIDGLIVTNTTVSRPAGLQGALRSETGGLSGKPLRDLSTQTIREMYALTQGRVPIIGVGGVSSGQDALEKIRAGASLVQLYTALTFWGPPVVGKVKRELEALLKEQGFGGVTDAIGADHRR

| SMILES | EC50 [1] [µM] | EC50 [2] [µM] |
| --- | --- | --- |
| CCn1c(CO)nn(-c2nc(O[C@@H](C)C(F)(F)F)c(C(=O)Nc3ncsc3C)cc2F)c1=O [Example 32, (S)-6-(4-Ethyl-3-(hydroxymethyl)-5-oxo-4,5-dihydro-1H-1,2,4-triazol-1-yl)-5-fluoro-N-(5-methylthiazol-4-yl)-2-((1,1,1-trifluoropropan-2-yl)oxy)nicotinamide] | 0.0253 | 0.0136 |
| CCn1c(CO)nn(-c2nc(O[C@@H](C)C(F)(F)F)c(C(=O)Nc3cc(Cl)cnc3OC)cc2F)c1=O [Example 33, (S)-N-(5-Chloro-2-methoxypyridin-3-yl)-6-(4-ethyl-3-(hydroxymethyl)-5-oxo-4,5-dihydro-1H-1,2,4-triazol-1-yl)-5-fluoro-2-((1,1,1-trifluoropropan-2-yl)oxy)nicotinamide] | > 0.1 | 0.0525 |
| CCn1c(CO)nn(-c2nc(O[C@@H](C)C(F)(F)F)c(C(=O)Nc3nccnc3OC)cc2F)c1=O [Example 34, (S)-6-(4-Ethyl-3-(hydroxymethyl)-5-oxo-4,5-dihydro-1H-1,2,4-triazol-1-yl)-5-fluoro-N-(3-methoxypyrazin-2-yl)-2-((1,1,1-trifluoropropan-2-yl)oxy)nicotinamide] | > 0.1 | 0.36 |
| CCn1c(CO)nn(-c2nc(O[C@@H](C)C(F)(F)F)c(C(=O)Nc3c(C)nsc3C)cc2F)c1=O [Example 35, (S)-N-(3,5-Dimethylisothiazol-4-yl)-6-(4-ethyl-3-(hydroxymethyl)-5-oxo-4,5-dihydro-1H-1,2,4-triazol-1-yl)-5-fluoro-2-((1,1,1-trifluoropropan-2-yl)oxy)nicotinamide] | 0.0061 | 0.0019 |
| CCn1c(CO)nn(-c2nc(O[C@@H](C)C(F)(F)F)c(C(=O)Nc3cc(C)cnc3F)cc2F)c1=O [Example 36, (S)-6-(4-Ethyl-3-(hydroxymethyl)-5-oxo-4,5-dihydro-1H-1,2,4-triazol-1-yl)-5-fluoro-N-(2-fluoro-5-methylpyridin-3-yl)-2-((1,1,1-trifluoropropan-2-yl)oxy)nicotinamide] | > 0.1 | 0.0586 |
| CCn1c(CO)nn(-c2nc(O[C@@H](C)C(F)(F)F)c(C(=O)Nc3cc(C)ncc3F)cc2F)c1=O [Example 37, (S)-6-(4-Ethyl-3-(hydroxymethyl)-5-oxo-4,5-dihydro-1H-1,2,4-triazol-1-yl)-5-fluoro-N-(5-fluoro-2-methylpyridin-4-yl)-2-((1,1,1-trifluoropropan-2-yl)oxy)nicotinamide] | > 0.1 | 0.2 |
| CCn1c(CO)nn(-c2nc(O[C@@H](C)C(F)(F)F)c(C(=O)Nc3c(C)ncnc3Cl)cc2F)c1=O [Example 38, (S)-N-(4-Chloro-6-methylpyrimidin-5-yl)-6-(4-ethyl-3-(hydroxymethyl)-5-oxo-4,5-dihydro-1H-1,2,4-triazol-1-yl)-5-fluoro-2-((1,1,1-trifluoropropan-2-yl)oxy)nicotinamide] | > 0.1 | 2.39 |
| CCn1c(CO)nn(-c2nc(O[C@@H](C)C(F)(F)F)c(C(=O)Nc3nc(C)ccc3F)cc2F)c1=O [Example 39, (S)-6-(4-Ethyl-3-(hydroxymethyl)-5-oxo-4,5-dihydro-1H-1,2,4-triazol-1-yl)-5-fluoro-N-(3-fluoro-6-methylpyridin-2-yl)-2-((1,1,1-trifluoropropan-2-yl)oxy)nicotinamide] | 0.0165 | 0.0141 |
| CCn1c(CO)nn(-c2nc(O[C@@H](C)C(F)(F)F)c(C(=O)Nc3c(C)cnc(OC)c3Cl)cc2F)c1=O [Example 40, (S)-N-(3-Chloro-2-methoxy-5-methylpyridin-4-yl)-6-(4-ethyl-3-(hydroxymethyl)-5-oxo-4,5-dihydro-1H-1,2,4-triazol-1-yl)-5-fluoro-2-((1,1,1-trifluoropropan-2-yl)oxy)nicotinamide] | 0.0003 | 0.00031 |
| CCn1c(CO)nn(-c2nc(O[C@@H](C)C(F)(F)F)c(C(=O)Nc3cc(C)cnc3OC)cc2F)c1=O [Example 41, (S)-6-(4-Ethyl-3-(hydroxymethyl)-5-oxo-4,5-dihydro-1H-1,2,4-triazol-1-yl)-5-fluoro-N-(2-methoxy-5-methylpyridin-3-yl)-2-((1,1,1-trifluoropropan-2-yl)oxy)nicotinamide] | 0.0524 | 0.0174 |
| CCn1c(CO)nn(-c2nc(O[C@@H](C)C(F)(F)F)c(C(=O)Nc3c(C)ccnc3F)cc2F)c1=O [Example 42, (S)-6-(4-Ethyl-3-(hydroxymethyl)-5-oxo-4,5-dihydro-1H-1,2,4-triazol-1-yl)-5-fluoro-N-(2-fluoro-4-methylpyridin-3-yl)-2-((1,1,1-trifluoropropan-2-yl)oxy)nicotinamide] | 0.0043 | 0.0024 |
| CCn1c(CO)nn(-c2nc(O[C@@H](C)C(F)(F)F)c(C(=O)Nc3ncnc(C)c3C)cc2F)c1=O [Example 43, (S)-N-(5,6-Dimethylpyrimidin-4-yl)-6-(4-ethyl-3-(hydroxymethyl)-5-oxo-4,5-dihydro-1H-1,2,4-triazol-1-yl)-5-fluoro-2-((1,1,1-trifluoropropan-2-yl)oxy)nicotinamide] | > 0.1 | 0.815 |
| CCn1c(CO)nn(-c2nc(O[C@@H](C)C(F)(F)F)c(C(=O)Nc3c(OC)ccnc3Cl)cc2F)c1=O [Example 44, (S)-N-(2-Chloro-4-methoxypyridin-3-yl)-6-(4-ethyl-3-(hydroxymethyl)-5-oxo-4,5-dihydro-1H-1,2,4-triazol-1-yl)-5-fluoro-2-((1,1,1-trifluoropropan-2-yl)oxy)nicotinamide] | 0.0107 | 0.0039 |
| CCn1c(CO)nn(-c2nc(O[C@@H](C)C(F)(F)F)c(C(=O)Nc3conc3C)cc2F)c1=O [Example 45, (S)-6-(4-Ethyl-3-(hydroxymethyl)-5-oxo-4,5-dihydro-1H-1,2,4-triazol-1-yl)-5-fluoro-N-(3-methylisoxazol-4-yl)-2-((1,1,1-trifluoropropan-2-yl)oxy)nicotinamide] | > 0.1 | 0.142 |
| CCn1c(CO)nn(-c2nc(O[C@@H](C)C(F)(F)F)c(C(=O)Nc3c(C)noc3C)cc2F)c1=O [Example 46, (S)-N-(3,5-Dimethylisoxazol-4-yl)-6-(4-ethyl-3-(hydroxymethyl)-5-oxo-4,5-dihydro-1H-1,2,4-triazol-1-yl)-5-fluoro-2-((1,1,1-trifluoropropan-2-yl)oxy)nicotinamide] | 0.0325 | 0.0127 |
| CCn1c(CO)nn(-c2nc(O[C@@H](C)C(F)(F)F)c(C(=O)Nc3cc(OC)ccc3F)cc2F)c1=O [Example 47, (S)-6-(4-Ethyl-3-(hydroxymethyl)-5-oxo-4,5-dihydro-1H-1,2,4-triazol-1-yl)-5-fluoro-N-(2-fluoro-5-methoxyphenyl)-2-((1,1,1-trifluoropropan-2-yl)oxy)nicotinamide] | 0.0069 | 0.0135 |
| CCn1c(CO)nn(-c2nc(O[C@@H](C)C(F)(F)F)c(C(=O)Nc3cc(C)ccc3Cl)cc2F)c1=O [Example 48, (S)-N-(2-Chloro-5-methylphenyl)-6-(4-ethyl-3-(hydroxymethyl)-5-oxo-4,5-dihydro-1H-1,2,4-triazol-1-yl)-5-fluoro-2-((1,1,1-trifluoropropan-2-yl)oxy)nicotinamide] | 0.000553 | 0.000761 |
| CCn1c(CO)nn(-c2nc(O[C@@H](C)C(F)(F)F)c(C(=O)Nc3c(C)n[nH]c3C)cc2F)c1=O [Example 49, (S)-N-(3,5-Dimethyl-1H-pyrazol-4-yl)-6-(4-ethyl-3-(hydroxymethyl)-5-oxo-4,5-dihydro-1H-1,2,4-triazol-1-yl)-5-fluoro-2-((1,1,1-trifluoropropan-2-yl)oxy)nicotinamide] | 0.0211 | 0.0064 |
| CCn1c(CO)nn(-c2nc(O[C@@H](C)C(F)(F)F)c(C(=O)Nc3cnc(OC)cc3Cl)cc2F)c1=O [Example 50, (S)-N-(4-Chloro-6-methoxypyridin-3-yl)-6-(4-ethyl-3-(hydroxymethyl)-5-oxo-4,5-dihydro-1H-1,2,4-triazol-1-yl)-5-fluoro-2-((1,1,1-trifluoropropan-2-yl)oxy)nicotinamide] | 0.00183 | 0.000852 |
| CCn1c(CO)nn(-c2nc(O[C@@H](C)C(F)(F)F)c(C(=O)Nc3cc(C)cnc3C)cc2F)c1=O [Example 51, (S)-N-(2,5-Dimethylpyridin-3-yl)-6-(4-ethyl-3-(hydroxymethyl)-5-oxo-4,5-dihydro-1H-1,2,4-triazol-1-yl)-5-fluoro-2-((1,1,1-trifluoropropan-2-yl)oxy)nicotinamide] | 0.0524 | 0.0064 |
| CCn1c(CO)nn(-c2nc(O[C@@H](C)C(F)(F)F)c(C(=O)Nc3cc(Cl)cnc3C)cc2F)c1=O [Example 52] | 0.0689 | 0.013 |
| CCn1c(CO)nn(-c2nc(O[C@@H](C)C(F)(F)F)c(C(=O)Nc3c(C)ccn(C)c3=O)cc2F)c1=O [Example 53, N-(1,4-Dimethyl-2-oxo-2,3-dihydro-1l4-pyridin-3-yl)-6-(4-ethyl-3-(hydroxymethyl)-5-oxo-4,5-dihydro-1H-1,2,4-triazol-1-yl)-5-fluoro-2-(((S)-1,1,1-trifluoropropan-2-yl)oxy)nicotinamide] | > 0.1 | 0.144 |
| CCn1c(CO)nn(-c2nc(O[C@@H](C)C(F)(F)F)c(C(=O)Nc3ncccc3Cl)cc2F)c1=O [Example 54, (S)-N-(3-Chloropyridin-2-yl)-6-(4-ethyl-3-(hydroxymethyl)-5-oxo-4,5-dihydro-1H-1,2,4-triazol-1-yl)-5-fluoro-2-((1,1,1-trifluoropropan-2-yl)oxy)nicotinamide] | 0.0069 | 0.0052 |
